Values joined by “and” are separate entries in the source; they are usually repeats but may differ in a detail not shown here. Identical values can stand only once. “Also recorded” adds a separate entry of the source.
Tests used:
[1] = UV/VIS absorption spectra of unbound flavonoids; format: physicochemical; conditions: pH 7.0
Procedure: (§1) All flavonoids and Bet v 1 isoforms were dissolved in 50 mM sodium phosphate, 50 mM NaCl, 10% (v/v) DMSO, pH 7.0, to a final concentration of 10 to 20 μM in 500 μl. Absorption spectra from 200–800 nm were recorded at 25°C in a 1 cm quartz cuvette (Hellma GmbH) using a 8453 UV-visible spectrophotometer (Agilent).

Bet v 1m [2] = molecular target: T1, Bet v 1m (Betula pendula, UniProt P43186); assay: 1H-15N HSQC NMR titration (chemical shift perturbation) of 15N-Bet v 1m; format: binding, Betula verrucosa
T1 construct: made in house
Procedure: (§2) All NMR experiments were performed at 298 K in 50 mM sodium phosphate buffer, 50 mM NaCl, pH 7.0, 10% deuterium oxide (^2H2O) with ^15N-uniformly labelled Bet v 1 isoforms using Bruker Avance 700 MHz and Avance 800 MHz spectrometers with cryogenically cooled triple-resonance probes equipped with pulsed field-gradient capabilities. NMR data were processed using NMRPipe and visualized with NMRViewJ [89]. Three-dimensional ^15N-edited NOESY (nuclear Overhauser enhancement spectroscopy, mixing times 120 ms) experiments to assign chemical shifts were obtained with 500 μM ^15N-labeled samples of Bet v 1 isoform d or m and yielded 91% of assigned residues for Bet v 1d and 89% for Bet v 1m. The sequence-specific assignments of the amide resonances of Bet v 1a are reported elsewhere.
(§3) Interaction of Q3OS with the Bet v 1 isoforms was measured by incubating 700 μM Q3OS with 50 μM of each ^15N-labeled Bet v 1 isoform in 50 mM sodium phosphate, 50 mM NaCl buffer, pH 7.0.
(§4) For titration experiments all other flavonoids were dissolved in deuterated DMSO, while glucose and galactose were dissolved in 50 mM sodium phosphate buffer, 50 mM NaCl, pH 7.0, 10% deuterium oxide and titrated stepwise to a final excess of up to 17-fold to protein samples (ca. 100 μM). […] CSPs for ligand binding were calculated based on Eq (2): […] (2) ΔδHN and ΔδN, chemical shift differences of amide proton and nitrogen resonances, respectively, in ppm.
(§5) K d values for flavonoid binding were determined with NMRViewJ [89]. All analysable amino acid residues that were unaffected by DMSO addition and showing CSPs > 0.08 ppm were fitted to a quadratic binding curve with default settings, and an average K d app was calculated (Table 1 and S1–S3 Tables). The CSPs of all residues showing CSPs > 0.04 ppm were mapped either on models of Bet v 1d and Bet v 1m or on the Bet v 1a structure (pdb code 1BV1, [29]).

Bet v 1a [3] = molecular target: T2, Bet v 1a (Betula pendula, UniProt P15494); assay: UV/VIS equilibrium titration of flavonoids with Bet v 1a; format: binding, Betula verrucosa; conditions: for Kd: Dissociation constant Kd, UV/VIS titration, 298 K, pH 7.0, 10% DMSO, error = standard error of fit; for Absorption maxima, Bet v 1a:Flavonoid: complex with Bet v 1a
T2 construct: made in house
Procedure: as §1
(§6) To further characterize flavonoid binding to Bet v 1, titration experiments were performed by adding small amounts of concentrated Bet v 1 isoform a, d or m to different flavonoids. Changes of flavonoid absorption occurring at specific wavelengths were plotted against the protein concentration. Prior to curve-fitting, absorbance data were corrected for dilution. If possible, the equilibrium dissociation constant (K d) was determined by non-linear regression analysis of the data with GraFit-5 (Version 5.0, Erithacus Software, UK) using the following Eq (1): ΔA=ΔAmax/2Q[(B+Q+Kd)-((B+Q+Kd)^2-[…])] (1) ΔA max, maximum change in absorbance at specific wavelengths; B, Bet v 1a concentration; Q, total flavonoid concentration.

Bet v 1a [4] = molecular target: T2, Bet v 1a; assay: 1H-15N HSQC NMR titration (chemical shift perturbation) of 15N-Bet v 1a; format: binding, Betula verrucosa; conditions: for Kd per residue / Kd / Dissociation constant Kd (averaged Kd app): Bet v 1a; for binding to Bet v 1a (in words): 1H-15N HSQC titration
Procedure: as §2, §3, §4, §5

Bet v 1d [5] = molecular target: T3, Bet v 1d (Betula pendula, UniProt P43177); assay: UV/VIS equilibrium titration of flavonoids with Bet v 1d; format: binding, Betula verrucosa; conditions: for Absorption maxima, Bet v 1d:Flavonoid: complex with Bet v 1d
T3 construct: made in house
Procedure: as §1, §6

[6] = tested on: serum IgE binding to surface-coated Bet v 1a, Bet v 1d and Bet v 1m; assay: Indirect ELISA for IgE binding to Bet v 1 isoforms; design: species or system human; conditions: 5-fold molar excess of ligand; isoforms a, d, m
From the text: Fifteen sera of birch pollen-allergic subjects were collected, tested, and pooled according to the guideline of the European Medicines Agency (EMEA/CHMP/BWP/304831/2007). The serum pool is routinely used for batch-release testing of birch pollen-derived allergenic products at the Paul-Ehrlich-Institut. The same serum pool was used for both, ELISA and mediator release assays.
For IgE-ELISA experiments, Maxisorp plates (Nunc via Fisher Scientific) were coated overnight at room temperature with 50 ng/100 μl recombinant Bet v 1 isoforms a, d, or m with a 5-fold molar excess of quercetin-3-O-sophorose, rutin, quercetin, quercetin-3-O-glucoside, quercetin-3-O-galactoside, or sophorose, respectively, in phosphate-buffered saline (PBS). After blocking with PBS containing 2% bovine serum albumin (BSA) these plates and an uncoated control were incubated with a dilution series of a serum pool of birch-pollen allergic subjects for 1 h at room temperature with PBS containing 0.05% Tween 20 and 0.1% BSA. Allergen-specific human IgE was detected with a horseradish peroxidase-conjugated mouse anti-human IgE antibody (Clone B3102E8, Southern biotech via Biozol, Eching, Germany) diluted 1:1000. 3,3′,5,5′-tetramethylbenzidine (Roth, Karlsruhe) was used as substrate for horseradish peroxidase, and the absorbance at 450 nm was measured after stopping the reaction with 25% H2SO4.

Bet v 1d [7] = molecular target: T3, Bet v 1d; assay: 1H-15N HSQC NMR titration (chemical shift perturbation) of 15N-Bet v 1d; format: binding, Betula verrucosa; conditions: for binding to Bet v 1d (in words): 1H-15N HSQC titration, up to 15-fold excess
Procedure: as §2, §3, §4, §5

Bet v 1m [8] = molecular target: T1, Bet v 1m; assay: UV/VIS equilibrium titration of flavonoids with Bet v 1m; format: binding, Betula verrucosa; conditions: for Absorption maxima, Bet v 1m:Flavonoid: complex with Bet v 1m
Procedure: as §1, §6

Bet v 1m [9] = molecular target: T1, Bet v 1m; assay: 1H-15N HSQC NMR titration (chemical shift perturbation) of 15N-Bet v 1m; format: binding, Betula verrucosa; conditions: 1H-15N HSQC titration, up to 15-fold excess
[10] = Dissociation constant Kd (averaged Kd app), NMR, average of all analysable residues with CSPs > 0.08 ppm, ± standard deviation
[11] = Kd per residue, one value per residue with Δδnorm > 0.08 ppm (residue named left of the cell), Int. Ex. = intermediate exchange
[12] = one value per residue with Δδnorm > 0.08 ppm (residue named left of the cell), Int. Ex. = intermediate exchange
[13] = NMR, Bet v 1d, average of all analysable residues with CSPs > 0.08 ppm, ± standard deviation
[14] = NMR, average of all analysable residues with CSPs > 0.08 ppm, ± standard deviation

T2 sequence (P15494 whole entry): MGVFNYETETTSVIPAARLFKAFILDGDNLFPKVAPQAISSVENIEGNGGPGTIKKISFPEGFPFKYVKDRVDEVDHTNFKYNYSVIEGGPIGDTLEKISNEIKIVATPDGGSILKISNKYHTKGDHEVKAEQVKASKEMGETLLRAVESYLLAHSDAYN
T1 sequence (P43186 whole entry): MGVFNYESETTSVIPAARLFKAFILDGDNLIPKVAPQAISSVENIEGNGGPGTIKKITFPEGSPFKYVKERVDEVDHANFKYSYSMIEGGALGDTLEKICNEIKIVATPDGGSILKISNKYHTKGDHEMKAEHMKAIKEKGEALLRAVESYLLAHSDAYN
T3 sequence (P43177 whole entry): as the sequence (P15494 whole entry) above, with T8I, F31V, S58N, I92V, S113C, I114V, D126N counted along it

SMILES | Absorption maxima, Flavonoid [1] [nm] | Kd (Bet v 1m [2]; [10]) [µM] | Kd (Bet v 1m [2]; [11]) | Kd per residue (Bet v 1m [2]; [12]) | Kd (Bet v 1a [3]; Bet v 1a) [µM] | Absorption maxima, Bet v 1a:Flavonoid (Bet v 1a [3]) [nm] | Kd per residue (Bet v 1a [4]; [12]) | Kd (Bet v 1a [4]; [10]) | Kd (Bet v 1a [4]; [11]) | Kd (Bet v 1d [5]) [µM] | Absorption maxima, Bet v 1d:Flavonoid (Bet v 1d [5]) [nm] | influence of ligand on IgE binding of Bet v 1 isoforms [6] | Kd (Bet v 1m [8]) [µM] | Absorption maxima, Bet v 1m:Flavonoid (Bet v 1m [8]) [nm] | binding to Bet v 1d (in words) (Bet v 1d [7]) | Dissociation constant Kd (averaged Kd app) (Bet v 1d [7]; [13]) | binding to Bet v 1a (in words) (Bet v 1a [4]) | binding to Bet v 1m (in words) (Bet v 1m [9]) | further results
O=c1c(O)c(-c2cc(O)c(O)c(O)c2)oc2cc(O)cc(O)c12 [Myricetin, myricetin] | 378 | 99.3 ± 19.4 | 75.3 µM and 161 µM and 24.4 µM and 88.5 µM and 126 µM and 120 µM | Int. Ex. | 4.2 ± 0.7 | 387 | Int. Ex. | 14.6 ± 6.5 µM | 5 µM and 11.6 µM and 26.9 µM | 1.2 ± 0.2 | 382 | – | – | – | – | – | – | – | fold higher affinity than flavone (Bet v 1a [3]; Bet v 1a): 15 fold; fold higher affinity than flavone (Bet v 1d [5]; Bet v 1d): 60 fold
C[C@@H]1O[C@@H](OC[C@H]2O[C@@H](Oc3c(-c4ccc(O)c(O)c4)oc4cc(O)cc(O)c4c3=O)[C@H](O)[C@@H](O)[C@@H]2O)[C@H](O)[C@H](O)[C@H]1O [rutin] | – | – | – | – | – | – | – | – | – | – | – | did not modify IgE-binding | – | – | – | – | – | – | –
O=c1cc(-c2ccccc2)oc2ccccc12 [Flavone, flavone] | 302 | 213 ± 36.6 | – | – | – | – | – | 67.1 ± 12.1 µM | – | – | – | – | – | – | – | – | – | – | Kd (Bet v 1d [7]; Dissociation constant Kd (averaged Kd app), NMR, Bet v 1d, average of all analysable residues with CSPs > 0.08 ppm, ± standard deviation): 69.9 ± 14.8 µM
O=c1c(O)c(-c2ccc(O)c(O)c2)oc2cc(O)cc(O)c12 [Quercetin, quercetin] | 377 | 65.8 ± 8.2 | – | Int. Ex | 9.2 ± 0.6 | 382 | Int. Ex. | 31.4 ± 10.3 µM | 69.1 µM and 36.8 µM and 11.1 µM and 21.6 µM and 18.6 µM | 10.2 ± 1 | 382 | did not modify IgE-binding | 26.5 ± 1.5 | 381 | – | – | – | – | –
O=C1C[C@@H](c2ccc(O)cc2)Oc2cc(O)cc(O)c21 [Naringenin, naringenin] | 325 | 22.1 ± 5.5 | 8.2 µM and 13.6 µM and 19 µM and 39.6 µM and 27.1 µM | Int. Ex. | 60.6 ± 3.2 | 325 | Int. Ex. | ~30 µM and 30 µM | – | 37.7 ± 6.4 | 325 | – | 28.1 ± 0.8 | 322 | – | – | – | – | –
O=c1c(O[C@@H]2O[C@H](CO)[C@@H](O)[C@H](O)[C@H]2O)c(-c2ccc(O)c(O)c2)oc2cc(O)cc(O)c12 [Q3OGlc, quercetin-3-O-glucoside] | 364 | < 5 | – | Int. Ex. | – | – | Int. Ex. | 288 µM | 357 µM and 259 µM and 285 µM and 252 µM | – | – | did not modify IgE-binding | – | – | Weak affinity; also recorded: did not produce significant CSPs | No binding | weak | High affinity; also recorded: strongly binds | –
O=c1c(O)c(-c2ccc(O)c(O)c2)oc2cc(O)ccc12 [Fisetin, fisetin] | 368 | 85.1 ± 21.7 | 150 µM and 28.9 µM and 109 µM and 111 µM and 81.3 µM and 20.4 µM | Int. Ex. | 14.3 ± 1.1 | 372 | Int. Ex. | 37.2 ± 6.5 µM | 18.2 µM and 39.4 µM and 72.5 µM and 16.1 µM and 53.5 µM and 48 µM and 36.8 µM and 18.6 µM and 28.6 µM and 17.4 µM and 16.8 µM | 13.9 ± 2.1 | 371 | – | 68.6 ± 12.4 | 370 | – | – | – | – | –
OC[C@H]1OC(O)[C@H](O)[C@@H](O)[C@@H]1O (some centres unmarked) [Glucose, glucose] | – | – | – | – | – | – | – | – | – | – | – | – | – | – | no detectable affinity | No binding | no detectable affinity | no detectable affinity | Dissociation constant Kd (averaged Kd app) (Bet v 1m [2]; [14]): No binding; Dissociation constant Kd (averaged Kd app) (Bet v 1a [4]; [14]): No binding
OC[C@H]1O[C@@H](O[C@H]2C(O)O[C@H](CO)[C@@H](O)[C@@H]2O)[C@H](O)[C@@H](O)[C@@H]1O (some centres unmarked) [sophorose] | – | – | – | – | – | – | – | – | – | – | – | did not modify IgE-binding | – | – | – | – | – | – | –
O=C[C@H](O)[C@@H](O)[C@@H](O)[C@H](O)CO [Galactose, galactose] | – | – | – | – | – | – | – | – | – | – | – | – | – | – | no detectable affinity | No binding | no detectable affinity | no detectable affinity | Dissociation constant Kd (averaged Kd app) (Bet v 1m [2]; [14]): No binding; Dissociation constant Kd (averaged Kd app) (Bet v 1a [4]; [14]): No binding

Source: article PMC4456386, “Ligand Recognition of the Major Birch Pollen Allergen Bet v 1 is Isoform Dependent” (PLoS ONE, 2015)
